Reference: patent US9296725B2, “Heterocyclyl pyrimidine analogues as TYK2 inhibitors” (Cellzome Limited, priority 2012, dated 2016)

How the values were obtained:
TYK2 = molecular target: T1, TYK2 (Homo sapiens, UniProt P29597); test: Kinobeads assay, TYK2 (competition binding in mixed Molt4/Ramos cell lysate, dot blot detection); details: Kinobeads assay, Molt4/Ramos lysate; read-out: TYK2 Band (Kinobeads assay potency, IC50)
T1 construct: endogenous in cells; host or cells: Molt4 (ATCC CRL-1582) and Ramos (ATCC CRL-1596), mixed lysate 1:2
Method: (§1) The compounds of the present invention as described in the previous examples were tested in a Kinobeads™ assay as described for ZAP-70 (WO-A 2007/137867). Briefly, test compounds (at various concentrations) and the affinity matrix with the immobilized aminopyrido-pyrimidine ligand 24 were added to cell lysate aliquots and allowed to bind to the proteins in 10 the lysate sample. After the incubation time the beads with captured proteins were separated from the lysate. Bound proteins were then eluted and the presence of TYK2 and JAK2 was detected and quantified using specific antibodies in a dot blot procedure and the Odyssey infrared detection system. Dose response curves for individual kinases were generated and IC50 values calculated. Kinobeads™ assays have been previously described (WO-A 2007/137867; WO-A 2006/134056).
(§2) The affinity matrix was washed two times with 15 mL of 1×DP buffer containing 0.2% NP40 (IGEPAL® CA-630, Sigma, #13021) and then resuspended in 1×DP buffer containing 0.2% NP40 (3% beads slurry). 5×DP buffer: 250 mM Tris-HCl pH 7.4, 25% Glycerol, 7.5 mM MgCl2, 750 mM NaCl, 5 mM Na3VO4; filter the 5×DP buffer through a 0.22 μm filter and store in aliquots at −80° C. The 5×DP buffer is diluted with H2O to 1×DP buffer containing 1 mM DTT and 25 mM NaF.
(§3) Stock solutions of test compounds were prepared in DMSO. In a 96 well plate 30 μL solution of diluted test compounds at 5 mM in DMSO were prepared. Starting with this solution a 1:3 dilution series (9 steps) was prepared. For control experiments (no test compound) a buffer containing 2% DMSO was used.
(§4) Molt4 cells (ATCC catalogue number CRL-1582) and Ramos cells (ATCC catalogue number CRL-1596) were grown in 1 L Spinner flasks (Integra Biosciences, #182101) in suspension in RPMI 1640 medium (Invitrogen, #21875-034) supplemented with 10% Fetal Bovine Serum (Invitrogen) at a density between 0.15×10^6 and 1.2×10^6 cells/mL. Cells were harvested by centrifugation, washed once with 1×PBS buffer (Invitrogen, #14190-094) and cell pellets were frozen in liquid nitrogen and subsequently stored at −80° C. Cells were homogenized in a Potter S homogenizer in lysis buffer: 50 mM Tris-HCl, 0.8% NP40, 5% glycerol, 150 mM NaCl, 1.5 mM MgCl2, 25 mM NaF, 1 mM sodium vanadate, 1 mM DTT, pH 7.5. One complete EDTA-free tablet (protease inhibitor cocktail, Roche Diagnostics, 1873580) per 25 mL buffer was added. The material was dounced 10 times using a mechanized POTTER S, transferred to 50 mL falcon tubes, incubated for 30 minutes on ice and spun down for 10 minutes at 20,000 g at 4° C. (10,000 rpm in Sorvall SLA600, precooled). The supernatant was transferred to an ultracentrifuge (UZ)-polycarbonate tube (Beckmann, 355654) and spun for 1 hour at 100.000 g at 4° C. (33.500 rpm in Ti50.2, precooled). The supernatant was transferred again to a fresh 50 mL falcon tube, the protein concentration was determined by a Bradford assay (BioRad) and samples containing 50 mg of protein per aliquot were prepared. The samples were immediately used for experiments or frozen in liquid nitrogen and stored frozen at −80° C.
(§5) Cell lysate (approximately 50 mg protein per plate) was thawed in a water bath at room temperature and then stored on ice. To the thawed cell lysate 1×DP 0.8% NP40 buffer containing protease inhibitors (1 tablet for 25 mL buffer; EDTA-free protease inhibitor cocktail; Roche Diagnostics 1873580) was added in order to reach a final protein concentration of 10 mg/mL total protein. The diluted cell lysate was stored on ice. Mixed Molt4/Ramos lysate was prepared by combining one volume of Molt4 lysate and two volumes of Ramos lysate (ratio 1:2).
(§6) To a 96 well filter plate (Multiscreen HTS, BV Filter Plates, Millipore #MSBVN1250) were added per well: 100 μL affinity matrix (3% beads slurry), 3 μL of compound solution, and 50 μL of diluted lysate. Plates were sealed and incubated for 3 hours in a cold room on a plate shaker (Heidolph tiramax 1000) at 750 rpm. […]

JAK2 = molecular target: T2, JAK2 (Homo sapiens, UniProt O60674); test: Kinobeads assay, JAK2 (competition binding in mixed Molt4/Ramos cell lysate, dot blot detection); details: read-out: JAK2 Band (Kinobeads assay potency, IC50)
T2 construct: endogenous in cells; host or cells: Molt4 (ATCC CRL-1582) and Ramos (ATCC CRL-1596), mixed lysate 1:2
Method: as §1, §2, §3, §4, §5, §6

T1 sequence (P29597 whole entry): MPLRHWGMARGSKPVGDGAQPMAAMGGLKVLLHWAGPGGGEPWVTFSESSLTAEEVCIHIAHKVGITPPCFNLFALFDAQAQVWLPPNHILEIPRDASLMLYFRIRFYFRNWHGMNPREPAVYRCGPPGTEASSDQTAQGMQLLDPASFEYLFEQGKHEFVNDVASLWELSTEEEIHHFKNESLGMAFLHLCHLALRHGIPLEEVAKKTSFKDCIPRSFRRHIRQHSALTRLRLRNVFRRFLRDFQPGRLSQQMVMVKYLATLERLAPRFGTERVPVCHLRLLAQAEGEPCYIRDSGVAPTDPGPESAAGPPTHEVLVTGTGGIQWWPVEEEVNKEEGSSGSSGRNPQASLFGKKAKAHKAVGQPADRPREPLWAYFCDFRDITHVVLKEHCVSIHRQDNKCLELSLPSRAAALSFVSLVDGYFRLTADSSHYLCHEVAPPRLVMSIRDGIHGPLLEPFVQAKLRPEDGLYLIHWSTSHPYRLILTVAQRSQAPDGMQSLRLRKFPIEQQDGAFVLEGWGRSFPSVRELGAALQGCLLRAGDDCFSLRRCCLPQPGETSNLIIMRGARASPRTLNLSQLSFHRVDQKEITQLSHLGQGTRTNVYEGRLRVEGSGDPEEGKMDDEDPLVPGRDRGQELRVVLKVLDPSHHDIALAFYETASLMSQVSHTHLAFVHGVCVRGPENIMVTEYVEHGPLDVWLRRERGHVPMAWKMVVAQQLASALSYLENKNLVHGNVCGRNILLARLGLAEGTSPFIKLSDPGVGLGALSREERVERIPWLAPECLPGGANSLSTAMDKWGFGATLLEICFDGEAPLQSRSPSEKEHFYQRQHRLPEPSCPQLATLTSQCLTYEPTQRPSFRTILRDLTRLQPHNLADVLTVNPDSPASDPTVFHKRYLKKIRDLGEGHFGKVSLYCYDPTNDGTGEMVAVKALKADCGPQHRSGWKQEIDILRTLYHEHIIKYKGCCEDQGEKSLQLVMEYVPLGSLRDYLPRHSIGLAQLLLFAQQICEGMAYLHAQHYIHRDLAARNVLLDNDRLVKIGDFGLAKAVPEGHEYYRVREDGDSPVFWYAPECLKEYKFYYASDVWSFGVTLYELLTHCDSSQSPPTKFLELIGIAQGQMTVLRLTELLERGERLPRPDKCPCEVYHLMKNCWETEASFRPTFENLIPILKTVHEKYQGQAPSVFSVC
T2 sequence (O60674 whole entry): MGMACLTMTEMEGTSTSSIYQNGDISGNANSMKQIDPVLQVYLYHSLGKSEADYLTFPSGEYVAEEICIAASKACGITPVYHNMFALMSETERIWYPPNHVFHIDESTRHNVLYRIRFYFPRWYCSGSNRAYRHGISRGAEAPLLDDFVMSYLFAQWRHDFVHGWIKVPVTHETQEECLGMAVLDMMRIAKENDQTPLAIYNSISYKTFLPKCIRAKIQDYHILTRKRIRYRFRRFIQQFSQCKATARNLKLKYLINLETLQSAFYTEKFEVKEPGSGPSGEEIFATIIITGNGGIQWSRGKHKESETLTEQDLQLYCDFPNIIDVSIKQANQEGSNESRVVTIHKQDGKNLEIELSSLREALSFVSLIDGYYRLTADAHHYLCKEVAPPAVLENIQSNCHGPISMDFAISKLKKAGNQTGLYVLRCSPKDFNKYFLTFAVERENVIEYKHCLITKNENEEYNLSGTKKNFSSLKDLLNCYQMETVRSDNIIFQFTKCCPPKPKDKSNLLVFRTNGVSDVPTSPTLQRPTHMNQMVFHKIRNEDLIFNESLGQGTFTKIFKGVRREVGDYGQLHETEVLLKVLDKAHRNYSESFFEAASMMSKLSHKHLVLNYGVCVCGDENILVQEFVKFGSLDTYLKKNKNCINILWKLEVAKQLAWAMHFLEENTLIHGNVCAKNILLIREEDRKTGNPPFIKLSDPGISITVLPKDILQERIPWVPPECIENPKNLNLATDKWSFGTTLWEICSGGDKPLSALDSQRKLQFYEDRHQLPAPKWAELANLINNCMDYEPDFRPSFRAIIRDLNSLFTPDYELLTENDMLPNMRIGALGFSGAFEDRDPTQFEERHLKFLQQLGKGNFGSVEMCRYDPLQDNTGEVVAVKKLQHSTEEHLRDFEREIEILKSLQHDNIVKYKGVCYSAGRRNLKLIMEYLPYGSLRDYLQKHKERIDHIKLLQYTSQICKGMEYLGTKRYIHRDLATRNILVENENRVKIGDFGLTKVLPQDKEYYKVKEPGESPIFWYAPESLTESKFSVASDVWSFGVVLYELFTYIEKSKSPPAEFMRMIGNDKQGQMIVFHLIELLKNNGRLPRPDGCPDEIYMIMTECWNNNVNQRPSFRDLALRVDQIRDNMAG

SMILES	IC50 (TYK2) [nM]	IC50 (JAK2) [nM]
Cn1cc(Nc2ncc(Cl)c(NCc3ccccc3)n2)cn1 [Example I-158]	100 to 1000	1000 to 10000
CNC(=O)Cn1cc(Nc2ncc(Cl)c(NCc3cccc(F)c3)n2)cn1 [Example I-212]	100 to 1000	100 to 1000
Fc1cccc(CNc2nc(Nc3cn[nH]c3)ncc2Cl)c1 [Example I-370]	100 to 1000	100 to 1000
CNC(=O)Cn1cc(Nc2ncc(Cl)c(NCc3cc(Br)cc(F)c3F)n2)cn1 [Example I-262]	100 to 1000	100 to 1000
CCOc1cccc(CNc2nc(Nc3cnn(CCO)c3)ncc2Cl)c1 [Example I-294]	100 to 1000	1000 to 10000
COc1cccc(CNc2nc(Nc3cnn(CCO)c3)ncc2Cl)c1 [Example I-186]	100 to 1000	1000 to 10000
CCNC(=O)c1cccc(CNc2nc(Nc3cnn(CCO)c3)ncc2Cl)c1 [Example I-241]	100 to 1000	1000 to 10000
Cc1cnc(Nc2cnn(CCC(F)(F)F)c2)nc1NCc1cc(F)cc(F)c1 [Example I-463]	1000 to 10000	1000 to 10000
OCCn1cc(Nc2ncc(Cl)c(NCc3c(F)cccc3-c3cn[nH]c3)n2)cn1 [Example I-265]	100 to 1000	1000 to 10000
CS(=O)(=O)NCc1cccc(CNc2nc(Nc3cnn(CC(=O)N4CCC[C@H]4C#N)c3)ncc2Cl)c1 [Example I-400]	100 to 1000	1000 to 10000
Cn1cc(Nc2ncc(Cl)c(NCc3cc(C(F)(F)F)ccc3F)n2)cn1 [Example I-277]	100 to 1000	1000 to 10000
Cc1cnc(Nc2cnn(CC(F)F)c2)nc1NCc1ccc(S(N)(=O)=O)cc1 [Example I-465]	100 to 1000	1000 to 10000
O=C(O)Cn1cc(Nc2ncc(F)c(NCc3c(F)cc(F)cc3F)n2)cn1 [Example I-307]	10 to 100	> 10000
CNC(=O)Cn1cc(Nc2ncc(Cl)c(NCc3ccccc3)n2)cn1 [Example I-195]	100 to 1000	1000 to 10000
C[C@@H](O)Cn1cc(Nc2ncc(Cl)c(NCc3ccccc3F)n2)cn1 [Example I-256]	100 to 1000	1000 to 10000
CS(=O)(=O)NCc1cccc(CNc2nc(Nc3cnn(CCO)c3)ncc2F)c1 [Example I-415]	100 to 1000	1000 to 10000
COc1ccc(F)c(CNc2nc(Nc3cnn(CC(=O)O)c3)ncc2F)c1F [Example I-426]	10 to 100	> 10000
NC(=O)Cn1cc(Nc2ncc(F)c(NCc3c(F)cc(F)cc3F)n2)cn1 [Example I-157]	10 to 100	1000 to 10000
Cn1cc(Nc2ncc(Cl)c(NCc3cc(F)cc(C(F)(F)F)c3)n2)cn1 [Example I-166]	100 to 1000	1000 to 10000
O=C(O)Cn1cc(Nc2ncc(Cl)c(NCc3cc(F)cc(C(F)(F)F)c3)n2)cn1 [Example I-275]	100 to 1000	1000 to 10000
Cc1cnc(Nc2cnn(CC(=O)O)c2)nc1NCc1c(F)cc(F)cc1F [Example I-306]	10 to 100	1000 to 10000
O=C(Cn1cc(Nc2ncc(Cl)c(NCc3ccccc3)n2)cn1)N1CC2COCC2C1 (stereo not shown) [Example I-188]	10 to 100	1000 to 10000
COc1c(F)cc(F)cc1CNc1nc(Nc2cnn(CC(=O)NC3CC3)c2)ncc1C [Example I-345]	10 to 100	100 to 1000
Cc1cnc(Nc2cnn(CC(F)F)c2)nc1NCc1ccccc1S(C)(=O)=O [Example I-478]	1000 to 10000	> 10000
Cn1cc(Nc2ncc(Cl)c(NCc3cccc(F)c3F)n2)cn1 [Example I-179]	100 to 1000	100 to 1000
Clc1cnc(Nc2cn[nH]c2)nc1NCc1ccccc1 [Example I-201]	100 to 1000	1000 to 10000

Next, values leading:

IC50 (TYK2) [nM]	IC50 (JAK2) [nM]	SMILES
10 to 100	1000 to 10000	O=C(Cn1cc(Nc2nccc(NCc3c(F)cccc3Cl)n2)cn1)NCC(F)F [Example I-141]
10 to 100	100 to 1000	OCCn1cc(Nc2ncc(Cl)c(NCc3cccc(F)c3)n2)cn1 [Example I-171]
10 to 100	1000 to 10000	O=C(O)Cn1cc(Nc2ncc(Cl)c(NCc3c(F)cccc3F)n2)cn1 [Example I-165]
10 to 100	> 10000	CC(NC(=O)Cn1cc(Nc2nccc(NCc3c(F)cc(F)cc3F)n2)cn1)C1CCOC1 (stereo not shown) [Example I-105]
≤ 10	1000 to 10000	COc1ccc(F)c(CNc2ccnc(Nc3cnn(CC(=O)N4CCOCC4)c3)n2)c1F [Example I-117]
10 to 100	100 to 1000	C[C@H](CO)NC(=O)Cn1cc(Nc2nccc(NCc3c(Cl)ccc(Cl)c3F)n2)cn1 [Example I-131]
10 to 100	100 to 1000	COc1ccc(S(C)(=O)=O)cc1CNc1nc(Nc2cnn(CCO)c2)ncc1F [Example I-88]
10 to 100	1000 to 10000	CS(=O)(=O)c1ccc(F)c(CNc2nc(Nc3cnn(CCO)c3)ncc2F)c1 [Example I-115]
10 to 100	> 10000	CC(C)NC(=O)Cn1cc(Nc2nccc(NCc3c(Cl)ccc(F)c3Cl)n2)cn1 [Example I-119]
10 to 100	1000 to 10000	C[C@@H](CO)NC(=O)Cn1cc(Nc2nccc(NCc3c(F)cccc3F)n2)cn1 [Example I-151]
10 to 100	100 to 1000	OCCn1cc(Nc2ncc(Cl)c(NCc3ccccc3F)n2)cn1 [Example I-174]
10 to 100	> 10000	NS(=O)(=O)c1ccc(CNc2nc(Nc3cnn(CC(=O)NC4CC4)c3)ncc2Cl)cc1 [Example I-10]
10 to 100	100 to 1000	Cc1cnc(Nc2cnn(CC(=O)NC3CC3)c2)nc1NCc1cc(F)cc(F)c1F [Example I-101]
≤ 10	100 to 1000	CC(C)NC(=O)Cn1cc(Nc2nccc(NCc3c(Cl)ccc(Cl)c3F)n2)cn1 [Example I-78]
10 to 100	1000 to 10000	CS(=O)(=O)NCc1cccc(CNc2nc(Nc3cnn(CC(=O)N4CCOCC4)c3)ncc2Cl)c1 [Example I-396]
10 to 100	> 10000	NS(=O)(=O)c1ccc(CNc2nc(Nc3cnn(CC(=O)N4CCCCC4)c3)ncc2F)cc1 [Example I-30]
10 to 100	1000 to 10000	Cn1cc(Nc2ncc(Cl)c(NCc3c(F)cccc3F)n2)cn1 [Example I-175]
10 to 100	1000 to 10000	COc1ccc(F)c(CNc2nc(Nc3cnn(CC(=O)NCC(C)C)c3)ncc2Cl)c1F [Example I-428]
10 to 100	10 to 100	Cc1cnc(Nc2cnn(C)c2)nc1NCc1cc(F)cc(F)c1F [Example I-342]
10 to 100	100 to 1000	OCCn1cc(Nc2ncc(Cl)c(NCc3ccc(O)cc3)n2)cn1 [Example I-219]
10 to 100	1000 to 10000	OCCn1cc(Nc2ncc(F)c(NCc3ccccc3F)n2)cn1 [Example I-205]
10 to 100	> 10000	O=C(Cn1cc(Nc2ncc(F)c(NCc3c(F)cc(F)cc3F)n2)cn1)NCC(F)(F)F [Example I-252]
≤ 10	100 to 1000	OCCn1cc(Nc2ncc(F)c(NCc3c(F)ccc(F)c3F)n2)cn1 [Example I-202]
≤ 10	100 to 1000	COc1ccc(F)c(CNc2nc(Nc3cnn(CC(=O)N4CCOCC4)c3)ncc2C)c1F [Example I-22]
